Test results: publication PMC3738572, “Improved Bone Morphogenetic Protein-2 Retention in an Injectable Collagen Matrix Using Bifunctional Peptides” (PLoS ONE, 2013)
Like-named read-outs stand apart in the source and are kept apart here. Each block holds one molecule with its values, some of them ahead of it. Residues, ends and D or L forms follow the SMILES beside them. *: point of attachment. Biotin = O=C1N[C@H]2[C@H](CS[C@H]2CCCCC(=O)*)N1

How the values were obtained:
rhBMP-2 = target: T1, rhBMP-2 (Homo sapiens, UniProt P12643); test: BMP-2 peptide binding assay (biotinylated peptide immobilized on streptavidin plate, rhBMP-2 titrated)
T1 construct: purchased R&D Systems 355-BM/CF
T1 sequence (P12643 283-396): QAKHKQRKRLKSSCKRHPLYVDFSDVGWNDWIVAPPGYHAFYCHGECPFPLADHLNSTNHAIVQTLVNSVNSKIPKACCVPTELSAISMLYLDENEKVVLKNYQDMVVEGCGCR
Text: To measure the ability of a BMP-binding peptide to capture its target growth factor out of buffer or a complex biological solution such as plasma, biotinylated peptides were immobilized onto a streptavidin-coated 96 well plate. Varying low nanomolar concentrations of BMP-2 were “spiked” into human plasma or Tris-buffered saline (0.5 M NaCl), 0.05% Tween-20 (TBST) and added to the peptide-containing plates. […] Adding p-NPP produced a colored reactant, which was quantified using a SpectroMax (Molecular Devices) plate reader at 405 nm.

rhBMP-7 = target: T2, rhBMP-7 (Homo sapiens, UniProt P18075); test: Peptide cross-reactivity to other growth factors; format: binding; settings: Figure 5; growth factor titrated in TBST for 1 h on immobilized peptide; antibody and p-NPP detection; read-out: EC50, BMP-7
T2 sequence (P18075 293-431): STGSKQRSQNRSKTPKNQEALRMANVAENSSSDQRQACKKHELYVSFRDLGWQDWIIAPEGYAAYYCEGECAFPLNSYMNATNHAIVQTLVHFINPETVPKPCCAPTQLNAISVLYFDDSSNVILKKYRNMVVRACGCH
Protocol: (§1) To measure the ability of a BMP-binding peptide to capture its target growth factor out of buffer or a complex biological solution such as plasma, biotinylated peptides were immobilized onto a streptavidin-coated 96 well plate. Varying low nanomolar concentrations of BMP-2 were “spiked” into human plasma or Tris-buffered saline (0.5 M NaCl), 0.05% Tween-20 (TBST) and added to the peptide-containing plates. After 1 hr incubation at room temperature (RT), plates were washed and incubated with an anti-BMP-2 antibody followed by a goat anti-mouse secondary antibody conjugated to alkaline phosphatase. Adding p-NPP produced a colored reactant, which was quantified using a SpectroMax (Molecular Devices) plate reader at 405 nm.
(§2) Figure 5 Peptide cross-reactivity to other growth factors. Peptides B-17 (A) and B-18 (B) were immobilized on a streptavidin-coated plate, and a range of concentrations of growth factors in the TGF-β superfamily were titrated onto the plate in TBST for 1 h. Growth factor binding was analyzed using antibody and p-NPP detection. […] Peptide B-17 also cross-reacted with rhBMP-3, rhBMP-5, and rhBMP-12. The peptides had lower affinities for all other growth factors tested. Data are presented as the absorbance read at 405 nm.

rhBMP-6 = target: T3, rhBMP-6 (Homo sapiens, UniProt P22004); test: Peptide cross-reactivity to other growth factors; format: binding; settings: Figure 5; growth factor titrated in TBST for 1 h on immobilized peptide; antibody and p-NPP detection; read-out: EC50, BMP-6
T3 sequence (P22004 375-513): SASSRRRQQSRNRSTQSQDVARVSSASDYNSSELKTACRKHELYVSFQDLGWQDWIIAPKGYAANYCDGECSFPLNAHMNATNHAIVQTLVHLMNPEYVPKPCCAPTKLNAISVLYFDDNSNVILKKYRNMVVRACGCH
Protocol: as §1, §2

[1] = target: T4, rhBMP-2 binding to injectable collagen gel (Homo sapiens, UniProt P12643); test: Injectable collagen gel binding assay; settings: tested for the ability to bind BMP-2 to a collagen gel
T4 construct: purchased R&D Systems 355-BM/CF
T4 sequence (P12643 283-396): T1 sequence (P12643 283-396)
Protocol: The injectable collagen gel (0.1 mL) was aliquoted into a polypropylene plate. The plate was blocked with 150 µl of 1% BSA in TBS for 30 min. After spinning for 2 min, the supernatant was removed without disrupting the collagen gel. […] The wells were then washed, and an alkaline phosphatase labeled goat anti-mouse secondary antibody was added. After incubation and washing, binding was measured using the chromogenic reagent p-NPP, and absorbance was read at 405 nm.

ectopic bone formation = test: In vivo ectopic bone formation study; design: species or system rat
Protocol: Male Sprague Dawley rats (150–175 g) were obtained from […], Charles River Laboratories (Raleigh, NC) and acclimated prior to surgery. The surgery was performed under general anesthesia by weight-adapted intraperitoneal injection of Xylazine 2% (Medistar; 12 mg/kg body weight) and Ketamine hydrochloride (Ketaset; 100 mg/mL; 80 mg/kg body weight). The thorax and abdomen were shaved and scrubbed with Betadine and alcohol. Using aseptic technique, two 5 mm incisions were made at the midline so that two subcutaneous pouches were prepared by blunt dissection. […] Each rat received two injections and a total of 20 animals were used in the study. […] In those experiments, rats were implanted with collagen gel containing either 1 or 5 μg of BMP-2.
The sites containing the injected material were explanted at two weeks and fixed in 10% neutral buffered formalin. The samples were placed in Formical 2000 decalcifier (American Mastertech) for 24 hours followed by Cal-arrest neutralizing solution for one hour. The tissue samples were processed in a Thermo-Electron, Shandon Excelsior Automated Tissue Processor for 14 hours. The process includes additional fixation in 10% buffered neutral formalin, dehydration through an ethanol gradient, and clearing with xylene at 40°C. Tissue was then embedded on a Leica EF 1140 H tissue embedding center in paraffin blocks for sectioning. Paraffin blocks were sectioned at 5 microns on a Reichert-Jung RM2065 microtome using Accu-Edge High Profile disposable stainless steel microtome blades. Three serial sections at intervals of 30 microns were obtained and placed on Super-frost Plus slides for hematoxylin and eosin staining (H&E). Staining was performed using a Sakura DRS-601 automatic slide stainer with a regressive Harris hematoxylin and Eosin Y Alcoholic for histological and morphological examination.
Histological sections were scored based on three criteria: Bone Cross-Sectional Area, Bone Maturity and Cellular Activity. Each segment was scored based on a 0–4 point scale by two observers (blinded to the study) who evaluated the entire implant under 10× magnification.

[2] = read-out: EC50 of BMP-2 binding to immobilized peptide
[3] = Figure 5, growth factor titrated in TBST for 1 h on immobilized peptide, antibody and p-NPP detection, read-out: EC50, BMP-2 (cross-reactivity experiment)
[4] = group median, 2 μg rhBMP-2 with 50-fold molar excess of peptide in collagen gel, rat, 2 weeks, p<.0001 vs no peptide

Molecule: CC(C)C[C@H](NC(=O)[C@H](C)NC(=O)[C@H](CO)NC(=O)[C@H](Cc1ccccc1)NC(=O)[C@H](CO)NC(=O)[C@H](CO)NC(=O)[C@H](Cc1ccccc1)NC(=O)[C@H](C)NC(=O)[C@H](CO)NC(=O)[C@H](CC(=O)O)NC(=O)[C@H](CO)NC(=O)[C@@H](N)CO)C(=O)N[C@@H](CCC(=O)O)C(=O)NCC(=O)N[C@@H](CO)C(=O)N[C@H](C(=O)N[C@H](C(=O)O)C(C)C)C(C)C [Peptide B-6] (H-SSDSAFSSFSALEGSVV-OH)
- EC50 (rhBMP-2): 1.4 nM

- EC50 (rhBMP-2; [2]): 29 nM
Molecule: CC(C)C[C@H](NC(=O)[C@H](C)NC(=O)[C@H](CO)NC(=O)[C@H](Cc1ccccc1)NC(=O)[C@H](CO)NC(=O)[C@@H](NC(=O)[C@H](Cc1c[nH]c2ccccc12)NC(=O)[C@H](C)NC(=O)CNC(=O)[C@H](C)NC(=O)[C@H](C)NC(=O)[C@H](C)NC(=O)[C@H](CCC(=O)O)NC(=O)CNC(=O)CN)C(C)C)C(=O)N[C@@H](CCC(=O)O)C(=O)N[C@@H](CO)C(=O)O [Peptide B-7] (H-GGEAAAGAWVSFSALES-OH)

- EC50 (rhBMP-2; [2]): 5.4 nM
Molecule: CC(C)C[C@H](NC(=O)[C@H](CO)NC(=O)[C@H](CO)NC(=O)[C@H](Cc1ccccc1)NC(=O)[C@@H](NC(=O)[C@H](CCC(=O)O)NC(=O)[C@@H](N)Cc1c[nH]c2ccccc12)C(C)C)C(=O)N[C@@H](CCC(=O)O)C(=O)N[C@@H](CO)C(=O)NCC(=O)N[C@@H](CO)C(=O)N[C@H](C(=O)NCC(=O)N[C@@H](C)C(=O)NCC(=O)N[C@@H](C)C(=O)NCC(=O)O)C(C)C [Peptide B-8] (H-WEVFSSLESGSVGAGAG-OH)

- EC50 (rhBMP-2; [2]): 5.7 nM
Molecule: CC(C)C[C@H](NC(=O)[C@@H]1CCCN1C(=O)[C@H](Cc1ccccc1)NC(=O)[C@H](CCCNC(=N)N)NC(=O)[C@H](CC(C)C)NC(=O)[C@@H]1CCCN1C(=O)[C@H](CCC(=O)O)NC(=O)[C@@H](N)Cc1ccccc1)C(=O)N[C@@H](CCCCN)C(=O)NCC(=O)N[C@H](C(=O)N1CCC[C@H]1C(=O)N[C@H](C(=O)O)C(C)C)C(C)C [Peptide B-9] (H-FEPLRFPLKGVPV-OH)

- EC50 (rhBMP-2; [2]): 26 nM
Molecule: CC(C)C[C@H](NC(=O)[C@H](CO)NC(=O)[C@H](CO)NC(=O)[C@H](Cc1ccccc1)NC(=O)[C@H](C)NC(=O)[C@H](CO)NC(=O)[C@H](Cc1ccccc1)NC(=O)[C@H](CO)NC(=O)CNC(=O)CNC(=O)[C@@H](N)CC(=O)O)C(=O)N[C@H](C(=O)N[C@@H](Cc1c[nH]c2ccccc12)C(=O)N[C@@H](C)C(=O)N[C@@H](C)C(=O)N[C@@H](CC(=O)O)C(=O)N[C@@H](CO)C(=O)O)C(C)C [Peptide B-10] (H-DGGSFSAFSSLVWAADS-OH)

- EC50 (rhBMP-2; [2]): 327 nM
Molecule: CC(C)C[C@H](NC(=O)[C@H](C)NC(=O)[C@H](CCC(=O)O)NC(=O)[C@H](Cc1ccccc1)NC(=O)[C@H](C)NC(=O)[C@H](CC(=O)O)NC(=O)[C@H](Cc1c[nH]c2ccccc12)NC(=O)[C@H](C)NC(=O)[C@H](CO)NC(=O)[C@H](C)NC(=O)[C@@H](NC(=O)[C@@H](NC(=O)CNC(=O)[C@H](Cc1c[nH]c2ccccc12)NC(=O)[C@@H](N)CC(=O)O)C(C)C)C(C)C)C(=O)N[C@@H](CC(=O)O)C(=O)N[C@@H](C)C(=O)O [Peptide B-11] (H-DWGVVASAWDAFEALDA-OH)

- EC50 (rhBMP-2; [2]): 12 nM
Molecule: CC(C)C[C@H](NC(=O)[C@H](CC(=O)O)NC(=O)[C@@H](NC(=O)[C@@H](N)CO)C(C)C)C(=O)N[C@@H](Cc1ccc(O)cc1)C(=O)N[C@@H](Cc1ccccc1)C(=O)N1CCC[C@H]1C(=O)N[C@@H](CC(C)C)C(=O)N[C@@H](CCCCN)C(=O)NCC(=O)N[C@@H](CC(=O)O)C(=O)N[C@H](C(=O)N[C@H](C(=O)O)C(C)C)C(C)C [Peptide B-12] (H-SVDLYFPLKGDVV-OH)

- EC50 (rhBMP-2; [3]): 1.4 nM
- EC50 (rhBMP-7): 17 nM
- EC50 (rhBMP-6): 1.3 nM
Molecule: CC(C)C[C@H](NC(=O)[C@H](CO)NC(=O)[C@H](CO)NC(=O)[C@H](Cc1ccccc1)NC(=O)[C@H](C)NC(=O)[C@H](CCC(=O)O)NC(=O)[C@H](Cc1c[nH]c2ccccc12)NC(=O)[C@H](C)NC(=O)CNC(=O)CNC(=O)CN)C(=O)N[C@@H](CO)C(=O)NCC(=O)N[C@@H](CO)C(=O)N[C@@H](CCCNC(=N)N)C(=O)N[C@H](C(=O)NCC(=O)N[C@@H](CO)C(=O)N[C@@H](CO)C(=O)NCC(=O)N[C@@H](CCCCNC(=O)CCCC[C@@H]1SC[C@@H]2NC(=O)N[C@@H]21)C(=O)O)C(C)C [Peptide B-17] (H-GGGAWEAFSSLSGSRVGSSGK(Biotin)-OH)

- EC50 (rhBMP-2; [3]): 2.8 nM
- EC50 (rhBMP-2; [2]): 1.9 nM
- EC50 (rhBMP-7): 16.2 nM
- EC50 (rhBMP-6): 6.5 nM
Molecule: CC(C)C[C@H](NC(=O)[C@H](C)NC(=O)CNC(=O)CN)C(=O)NCC(=O)N[C@@H](Cc1ccccc1)C(=O)N1CCC[C@H]1C(=O)N[C@@H](CC(C)C)C(=O)N[C@@H](CCCCN)C(=O)NCC(=O)N[C@@H](CCC(=O)O)C(=O)N[C@H](C(=O)N[C@H](C(=O)N[C@@H](CCC(=O)O)C(=O)NCC(=O)N[C@@H](Cc1c[nH]c2ccccc12)C(=O)N[C@@H](C)C(=O)NCC(=O)N[C@@H](CO)C(=O)N[C@@H](CO)C(=O)NCC(=O)N[C@@H](CCCCNC(=O)CCCC[C@@H]1SC[C@@H]2NC(=O)N[C@@H]21)C(=O)O)C(C)C)C(C)C [Peptide B-18] (H-GGALGFPLKGEVVEGWAGSSGK(Biotin)-OH)

- Binding of BMP-2 by bifunctional peptide [1]: bound BMP-2
Molecule: SWWGFWNGSAAPVWSR-GSSG-AGALGFPLKGEVVEGWA-GSSGK(Biotin) [BC-2]

- Binding of BMP-2 by bifunctional peptide [1]: bound BMP-2
Molecule: SWWGFWNGSAAPVWSR-GSSG-AGAWEAFSSLSGSRV-GSSGK(Biotin) [BC-1]
- Median histology score: Bone area (ectopic bone formation; [4]): 2.1 (26–35% of Implant Shows Evidence of Bone Formation)
- Median histology score: Bone maturity (ectopic bone formation; [4]): 3.0
- Median histology score: Osteogenic cellular activity (ectopic bone formation; [4]): 2.6
- Bone formation in preliminary experiments (ectopic bone formation; rats implanted with collagen gel containing 1 or 5 μg of BMP-2, with or without peptide, data not shown): bone formation at both doses
